Reference: publication PMC12090182, “Repurposing of the RIPK1-Selective Benzo[1,4]oxazepin-4-one Scaffold for the Development of a Type III LIMK1/2 Inhibitor” (ACS Chemical Biology, 2025)
Where two headings read alike, the source gives them in different places.

Test system: HEK293T cells
Assay type: cell-based
Conditions: human, 10 µM
Outline: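 HEK293T and U2OS cells (DMEM) and MRC-9 fibroblasts (EMEM) exposed to compounds at 1 and 10 μM. Live-cell confocal imaging of cell shape and fluorescence before and at 12, 24 and 48 h. Normalized to 0.1% DMSO; biological duplicates with SEM.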

Measured: Population with membrane disruption (%)

CN1C(=O)[C@@H](N2CCc3c(C(N)=O)nn(Cc4ccccc4)c3C2=O)COc2ccccc21 [Compound 11]
0.00%: 0 h | 12 h | 24 h
